Literature values in patent US12239625B2, “Modified release gamma-hydroxybutyrate formulations having improved pharmacokinetics” (Flamel Ireland Limited, priority 2016, dated 2025).
Like-named read-outs stand apart in the source and are kept apart here.

Experiments:
plasma proteins = conditions: GHB concentrations 3 mcg/mL to 300 mcg/mL
rat [1] = conditions: 2-year study
mouse = conditions: 2-year study
rat [2] = conditions: in vivo
CYP2D6 = CYP2D6 (Homo sapiens, UniProt P10635); conditions: up to 3 mM (378 mcg/mL)
CYP2D6, sequence (P10635 whole entry): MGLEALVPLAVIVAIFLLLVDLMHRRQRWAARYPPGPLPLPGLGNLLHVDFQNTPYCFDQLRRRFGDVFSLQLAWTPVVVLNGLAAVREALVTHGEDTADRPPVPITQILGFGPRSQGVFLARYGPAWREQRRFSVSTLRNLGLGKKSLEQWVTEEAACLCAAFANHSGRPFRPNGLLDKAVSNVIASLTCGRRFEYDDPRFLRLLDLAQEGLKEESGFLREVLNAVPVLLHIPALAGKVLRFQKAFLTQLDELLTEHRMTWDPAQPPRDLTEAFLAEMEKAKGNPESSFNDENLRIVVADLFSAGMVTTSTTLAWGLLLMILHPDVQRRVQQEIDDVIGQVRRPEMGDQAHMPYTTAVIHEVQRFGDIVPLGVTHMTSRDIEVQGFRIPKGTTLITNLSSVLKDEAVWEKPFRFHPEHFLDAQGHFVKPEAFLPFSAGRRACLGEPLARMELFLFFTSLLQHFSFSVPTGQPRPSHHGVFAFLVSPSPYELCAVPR

patients with narcolepsy = conditions: estimated dose of 150 g
CYP2C9 = CYP2C9 (Homo sapiens, UniProt P11712); conditions: up to 3 mM (378 mcg/mL)
CYP2C9, sequence (P11712 whole entry): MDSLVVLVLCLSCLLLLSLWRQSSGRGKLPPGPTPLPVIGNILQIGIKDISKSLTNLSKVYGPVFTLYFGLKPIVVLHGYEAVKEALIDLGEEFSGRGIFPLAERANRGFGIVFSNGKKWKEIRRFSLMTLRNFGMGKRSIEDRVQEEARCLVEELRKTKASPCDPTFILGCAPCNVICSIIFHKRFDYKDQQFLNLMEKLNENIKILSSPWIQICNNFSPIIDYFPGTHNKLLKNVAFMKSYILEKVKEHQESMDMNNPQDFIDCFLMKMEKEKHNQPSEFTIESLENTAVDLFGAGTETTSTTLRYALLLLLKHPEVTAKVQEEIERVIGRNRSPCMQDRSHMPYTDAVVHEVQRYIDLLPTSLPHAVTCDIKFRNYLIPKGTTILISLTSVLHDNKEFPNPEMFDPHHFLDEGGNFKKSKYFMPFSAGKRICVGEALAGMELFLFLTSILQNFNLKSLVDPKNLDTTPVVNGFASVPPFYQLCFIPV

CYP2E1 = CYP2E1 (Homo sapiens, UniProt P05181); conditions: up to 3 mM (378 mcg/mL)
CYP2E1, sequence (P05181 whole entry): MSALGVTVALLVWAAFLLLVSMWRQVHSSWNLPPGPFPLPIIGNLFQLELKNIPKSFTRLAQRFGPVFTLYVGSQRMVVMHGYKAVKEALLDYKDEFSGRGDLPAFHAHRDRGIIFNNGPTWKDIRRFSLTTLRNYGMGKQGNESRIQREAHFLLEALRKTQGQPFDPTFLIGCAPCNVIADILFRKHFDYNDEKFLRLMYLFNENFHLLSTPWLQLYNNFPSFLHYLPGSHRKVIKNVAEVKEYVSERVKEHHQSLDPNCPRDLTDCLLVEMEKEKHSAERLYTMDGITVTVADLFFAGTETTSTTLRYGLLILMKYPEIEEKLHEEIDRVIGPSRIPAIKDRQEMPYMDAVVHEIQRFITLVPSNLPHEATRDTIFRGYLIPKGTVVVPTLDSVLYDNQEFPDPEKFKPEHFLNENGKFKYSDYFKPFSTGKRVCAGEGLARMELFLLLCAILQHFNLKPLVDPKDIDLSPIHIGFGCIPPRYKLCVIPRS

mammalian cells = conditions: in vitro
rats [3] = system: rats
CYP2C19 = CYP2C19 (Homo sapiens, UniProt P33261); conditions: up to 3 mM (378 mcg/mL)
CYP2C19, sequence (P33261 whole entry): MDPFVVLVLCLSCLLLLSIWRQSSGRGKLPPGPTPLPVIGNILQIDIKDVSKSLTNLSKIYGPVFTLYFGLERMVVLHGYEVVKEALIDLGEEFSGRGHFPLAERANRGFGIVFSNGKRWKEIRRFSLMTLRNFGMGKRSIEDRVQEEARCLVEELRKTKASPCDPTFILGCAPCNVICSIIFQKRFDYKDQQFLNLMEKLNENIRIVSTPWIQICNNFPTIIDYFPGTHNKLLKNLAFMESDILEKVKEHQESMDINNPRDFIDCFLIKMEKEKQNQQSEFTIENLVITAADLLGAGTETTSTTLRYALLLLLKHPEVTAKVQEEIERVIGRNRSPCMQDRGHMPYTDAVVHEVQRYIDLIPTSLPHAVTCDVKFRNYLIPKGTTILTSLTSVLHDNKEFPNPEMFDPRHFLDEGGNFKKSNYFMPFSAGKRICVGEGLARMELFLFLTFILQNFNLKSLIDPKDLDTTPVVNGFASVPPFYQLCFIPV

rats [4] = system: rats; remark: listed apart in the source
CYP3A = conditions: up to 3 mM (378 mcg/mL)
CYP1A2 = target: T1, CYP1A2 (Homo sapiens, UniProt P05177); conditions: up to 3 mM (378 mcg/mL)
T1 sequence (P05177 1-516): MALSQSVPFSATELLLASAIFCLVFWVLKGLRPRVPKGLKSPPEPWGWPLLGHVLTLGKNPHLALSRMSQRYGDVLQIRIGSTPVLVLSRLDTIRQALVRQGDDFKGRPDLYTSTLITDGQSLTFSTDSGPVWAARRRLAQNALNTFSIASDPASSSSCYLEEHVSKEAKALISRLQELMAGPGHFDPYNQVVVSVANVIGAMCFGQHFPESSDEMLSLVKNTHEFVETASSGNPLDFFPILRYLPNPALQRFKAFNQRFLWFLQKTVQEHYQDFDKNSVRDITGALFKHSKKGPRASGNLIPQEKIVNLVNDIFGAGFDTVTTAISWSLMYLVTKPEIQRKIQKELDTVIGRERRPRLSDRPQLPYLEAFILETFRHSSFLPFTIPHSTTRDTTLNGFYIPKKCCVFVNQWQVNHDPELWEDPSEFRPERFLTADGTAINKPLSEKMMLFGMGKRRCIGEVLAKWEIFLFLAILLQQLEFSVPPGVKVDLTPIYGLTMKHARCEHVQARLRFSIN

[5] = single oral dose 25 mg/kg
male and female rats = conditions: oral 150, 350, or 1,000 mg/kg/day prior to and throughout mating
bacterial gene mutation = conditions: in vitro
[6] = 6 g per day as two 3 g doses; ibuprofen 800 mg four times per day

O=C(O)CCCO [GHB, gamma-hydroxybutyrate]
Bound to plasma proteins (plasma proteins): less than 1%
Excretion in human milk (after oral administration of sodium oxybate): excreted in human milk
Apparent volume of distribution (human, in vivo): 0.19 to 0.384 L/kg
Elimination half-life (human, in vivo): 30 to 60 min
Unchanged drug in human urine (within 6 to 8 hours after dosing): less than 5%

O=C1CCCO1 [gamma-butyrolactone]
Carcinogenic activity (rat [1]): no clear evidence of carcinogenic activity
Carcinogenic activity (mouse): no clear evidence of carcinogenic activity

O=C([O-])CCCO.[Na+] [sodium oxybate, sodium 4-hydroxybutyrate]
Micronucleus (rat [2]): negative
Inhibition of CYP2D6 activity (CYP2D6): does not significantly inhibit
Overdose case (patients with narcolepsy): unresponsive with brief periods of apnea
Inhibition of CYP2C9 activity (CYP2C9): does not significantly inhibit
Developmental toxicity (pregnant rats; oral 150, 350, or 1,000 mg/kg/day throughout organogenesis): no clear evidence of developmental toxicity
Highest dose tested as multiple of the MRHD (9 g per night) on mg/m2 basis (pregnant rats; rats): approximately 1 times
Inhibition of CYP2E1 activity (CYP2E1): does not significantly inhibit
Chromosomal aberration (mammalian cells): negative
Tumors (rats [3]; oral doses up to 1,000 mg/kg/day for 83 (males) or 104 (females) weeks): no increase in tumors
Plasma exposure (AUC) at the highest dose tested as multiple of that in humans at the MRHD (rats [3]; rats): 2 times
Developmental toxicity (pregnant rabbits; oral 300, 600, or 1,200 mg/kg/day throughout organogenesis): no clear evidence of developmental toxicity
Highest dose tested as multiple of the MRHD (9 g per night) on mg/m2 basis (pregnant rabbits; rabbits): ~3 times
Inhibition of CYP2C19 activity (CYP2C19): does not significantly inhibit
Body weight gain and sexual maturation (rats [4]; at the highest dose tested (900 mg/kg/day)): Reduced body weight gain in males and females and delayed sexual maturation in males
Mortality (rats [4]; oral 0, 100, 300, or 900 mg/kg/day, postnatal days 21 through 90): mortality was observed at the two highest closes tested
Inhibition of CYP3A activity (CYP3A): does not significantly inhibit
Inhibition of CYP1A2 activity (CYP1A2): does not significantly inhibit
Mean elimination half-life ([5]; Class A): 32 min
Mean elimination half-life ([5]; Class C): 59 min
Mean elimination half-life ([5]; control patients): 22 min
Effects on fertility (male and female rats): no adverse effects on fertility
Bacterial gene mutation (bacterial gene mutation): negative
Gender differences in the pharmacokinetics of GHB (18 female and 18 male healthy adults, oral dose 4.5 g): no gender differences
Systemic exposure to GHB on co-administration with ibuprofen [6]: comparable systemic exposure to GHB
